Marks after values point to notes of the source that are not given here.
Key:
[1] = Human hepatocyte clearance study; assay type: in vitro ADME
Method: The in vitro human hepatocyte clearance of compounds described here was studied using pooled human hepatocytes purchased from BioreclamationIVT (Westbury, NY, Cat # X008001, Lot # TQJ). The assay was conducted according to manufacturer's instruction. Briefly, 10 mM stock solutions of test compounds and positive control (Verapamil) were prepared in 100% DMSO. […] Incubation media is made of Williams E medium supplemented with 1×GlutaMax. Both thawing medium and incubation medium (serum-free) were placed in a 37° C. water bath for at least 15 minutes prior to use. […] Verapamil was use as a positive control in the assay. Vials of cryopreserved hepatocytes were removed from storage and thawed in a 37° C. water bath with gentle shaking. Contents of the vial were poured into the 50 mL thawing medium conical tube. Vials were centrifuged at 100 g for 10 minutes at room temperature. […] Hepatocyte viability and density were counted using a Trypan Blue exclusion, and then cells were diluted with serum-free incubation medium to a working cell density of 0.5×10^6 viable cells/mL. Then, a portion of the hepatocytes at 0.5×10^6 viable cells/mL was boiled for 5 minutes prior to adding to the plate as negative control to eliminate the enzymatic activity so that little or no substrate turnover should be observed. The boiled hepatocytes were used to prepare negative samples. Aliquots of 198 μL hepatocytes were dispensed into each well of a 96-well non-coated plate. The plate was placed in the incubator on an orbital shaker at 500 rpm for approximately 10 minutes. […] This assay was performed in duplicate. The plate was incubated in the incubator on an orbital shaker at 500 rpm for the designated time points. Twenty-five microliter of contents were transferred and mixed with 6 volumes (150 μL) of cold acetonitrile with IS (200 nM imipramine, 200 nM labetalol and 200 nM diclofenac) to terminate the reaction at time points of 0, 15, 30, 60, 90 and 120 minutes. […] For data analysis, all calculations were carried out using Microsoft Excel. Peak areas were determined from extracted ion chromatograms. The in vitro half-life (t1/2) of parent compound was determined by regression analysis of the percent parent disappearance vs. time curve. […] Conversion of the in vitro t1/2 (in minutes) into the scale-up unbound intrinsic clearance (scaled-up unbound CLint, in mL/min/kg) was done using the following equation (mean of duplicate determinations): Scaled-up unbound CLint=kV/N×scaling factor, where V=incubation volume (0.5 mL); N=number of hepatocytes per well (0.25×10^6 cells).

[2] = target: ligand binding domain of thyroid hormone receptor alpha (Homo sapiens (Human), UniProt P10827); test: Thyroid hormone receptor TR-FRET binding assay (TRα LBD); details: TRα LBD 4 nM
Method: (§1) TR-FRET binding assay was used to test representative compounds herein.
(§2) The ligand binding domain of thyroid hormone receptor alpha and the ligand binding domain of thyroid hormone receptor beta with GST tag were purchased from Invitrogen. Biotin-SRC2-2 coactivator peptide was purchased from Sangon Biotech, Europium anti-GST and Streptavidin-D2 was from Cisbio.
(§3) Five microliters of 4× compound serial dilution was added in the 384-well plate, white, low volume, round-bottom assay plate. […] Centrifuge the assay plates at 1000 g for 1 min and incubate 1 hr at RT, protected from light. […] Calculate EC50 by fitting % Activity values and log of compound concentrations to nonlinear regression (dose response—variable slope) with Graphpad 5.0.

[3] = target: ligand binding domain of thyroid hormone receptor beta (Homo sapiens (Human), UniProt P10828); test: Thyroid hormone receptor TR-FRET binding assay (TRβ LBD); details: TRβ LBD 2 nM
Method: as §1, §2, §3

[4] = target: TRβ-GAL4 binding domain chimeric receptors (Homo sapiens (Human), UniProt P10828); test: Thyroid hormone receptor cell assay (GAL4 luciferase reporter in HEK293-LUC cells); assay type: cell-based
Excerpt: TRα-LBD or TRβ-LBD, coding sequence was inserted into pBIND expression vector (Promega, E1581) to express TRβ-GAL4 binding domain chimeric receptors. This expression vector was transfected into HEK293-LUC host cells with reporter vector (pGL4.35 which carry a stably integrated GAL4 promoter driven luciferase reporter gene). Upon agonist binding to the corresponding TRa-GAL4 or TRb-GAL4 chimeric receptor, the chimeric receptor binds to the GAL4 binding sites and stimulates the reporter gene.
Seed 2.5×10^6 HEK293-LUC cells into a 60 mm dish and incubated for 16 h at 37° C. under 5% CO2 atmosphere. Mix 12 microliters of Lipo LTX reagent in 250 microliters of Opti-MEM Medium by inversion. Mix 6 ug of DNA in 250 uL of Opti-MEM medium, then add 6 uL of Lipo PLUS Reagent. Add diluted DNA to each tube of diluted Lipo LTX Reagent (1:1 ratio), and mix by Pipettor and incubate at room temperature for 10 min. The reagent mixture was added to a 60 mm dish, incubated with cells for 4-7 h at 37 degrees under 5% CO2 atmosphere.
75 nL compound was added into 384 well assay plate using ECHO550 and then add HEK293-LUC cells (transfected, 17,000 cells/well) into the plate using phenol red-free DMEM containing 5% charcoal/dextran-treated FBS and incubated for 16-20 h at […] under 5% CO2 atmosphere. Add 25 uL of Steady-Glo Luciferase Assay Reagent into each well. Shake for 5 min and then record the luminescence value on Envision 2104 plate reader.

Chain of ligand binding domain of thyroid hormone receptor alpha (P10827 other isoform, or with tags, fused parts or gaps del 1-162, other chains not shown): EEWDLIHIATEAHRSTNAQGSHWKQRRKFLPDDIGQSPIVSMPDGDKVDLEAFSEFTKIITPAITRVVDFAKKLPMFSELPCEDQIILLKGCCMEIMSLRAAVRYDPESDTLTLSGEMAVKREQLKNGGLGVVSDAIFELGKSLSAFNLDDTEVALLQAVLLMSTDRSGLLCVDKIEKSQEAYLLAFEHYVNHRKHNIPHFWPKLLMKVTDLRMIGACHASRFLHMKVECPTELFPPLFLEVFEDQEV
Chain of TRβ-GAL4 binding domain chimeric receptors (P10828 217-461, stated change not applied): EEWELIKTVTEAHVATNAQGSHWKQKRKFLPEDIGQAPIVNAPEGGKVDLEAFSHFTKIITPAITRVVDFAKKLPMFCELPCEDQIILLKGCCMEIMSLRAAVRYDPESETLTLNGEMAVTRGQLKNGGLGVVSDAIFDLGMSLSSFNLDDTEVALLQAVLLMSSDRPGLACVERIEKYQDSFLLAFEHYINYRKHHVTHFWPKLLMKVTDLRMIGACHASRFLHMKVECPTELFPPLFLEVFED
Chain of ligand binding domain of thyroid hormone receptor beta (P10828 217-461): as the sequence (P10828 217-461, stated change not applied) above

Row | SMILES | CLint scaled at 1 µM ([1]; human, hepatocytes) [mL/min/kg] | half-life at 1 µM ([1]; human, hepatocytes) [h] | hepatocyte CLint at 1 µM ([1]; human, hepatocytes) [µL/min/1e6 cells] | Human Hepatocyte Remaining Percentage @ 120 min ([1]; human, hepatocytes, 2 h, 1 µM) [%] | Human In vitro T1/2 ([1]; human, hepatocytes) | other results
1 | Cc1nn(-c2cc(Cl)c(Oc3cc(Cc4ccccc4)c(=O)[nH]n3)c(Cl)c2)c(=O)[nH]c1=O [Compound 27] |  |  |  |  | 56.77 h | Human Hepatocyte Remaining Percentage @ 120 min ([1]; human hepatocytes, 120 min): 100%; Human Scale-up Clint ([1]; human hepatocytes, scaling factor 2544.3): 1.04 mL/min/kg; Human In vitro Clint ([1]; human, hepatocytes): 0.41 μL/min/10^6 cells
2 | Cc1nn(-c2cc(Cl)c(Oc3cc(C(C)C)c(=O)[nH]n3)c(Cl)c2)c(=O)[nH]c1=O [Compound 35] |  |  |  |  | 10.4 h | EC50 [2]: 2570 nM; Human In vitro Clint ([1]; human, hepatocytes): 2.21 μL/min/10^6 cells; Human Scale-up Clint ([1]; human, hepatocytes): 5.63 mL/min/kg; Human Hepatocyte Remaining Percentage @ 120 min ([1]; human, hepatocytes, 2 h): 89%
3 | Cc1nn(-c2cc(Cl)c(Oc3cc(C4CCC4)c(=O)[nH]n3)c(Cl)c2)c(=O)[nH]c1=O [Compound 9] | 9.5 | 6.18 | 3.73 | 79 |  | 
4 | N#Cc1nn(-c2cc(Br)c(Oc3cc(C4CC4)c(=O)[nH]n3)c(Br)c2)c(=O)[nH]c1=O [Compound 8] |  |  |  | 98 | ∞* | Human In vitro Clint ([1]; human, hepatocytes, 1 µM): 0.00* μL/min/10^6 cells; Human Scale-up Clint ([1]; human, hepatocytes, 1 µM): 0.00* mL/min/kg

The next lines start with results.

Row | CLint scaled at 1 µM ([1]; human, hepatocytes) [mL/min/kg] | half-life at 1 µM ([1]; human, hepatocytes) [h] | hepatocyte CLint at 1 µM ([1]; human, hepatocytes) [µL/min/1e6 cells] | Human Hepatocyte Remaining Percentage @ 120 min ([1]; human, hepatocytes, 2 h, 1 µM) [%] | Human In vitro T1/2 ([1]; human, hepatocytes) | SMILES | other results
5 | 4 | 14.7 | 1.57 | 93 |  | Cc1nn(-c2cc(Cl)c(Oc3cc(Cc4ccc(C#N)cc4)c(=O)[nH]n3)c(Cl)c2)c(=O)[nH]c1=O [Compound 66] | 
6 | 4.53 | 13 | 1.78 | 94 |  | N#Cc1nn(-c2cc(Cl)c(Oc3cc(C4CC4)c(=O)[nH]n3)c(C(F)(F)F)c2)c(=O)[nH]c1=O [Compound 65] | EC50 [3]: 150 nM; EC50 [2]: 1040 nM; EC50 [4]: 4100 nM
7 | 21.3 | 2.75 | 8.39 | 60 |  | CC(C)c1cc(Oc2c(Cl)cc(-n3nc(C#N)c(=O)[nH]c3=O)cc2Cl)n[nH]c1=O [MGL-3196, reference compound] | 

— patent publication US12391677B2, “Thyroid hormone receptor agonists” (INVENTISBIO CO., LTD., priority 2018, dated 2025)
